ChEMBL document CHEMBL1201862, “PubChem BioAssay data set” (2004)
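Cultured in 96-well plates, cells were exposed to test compound for 48 hours across five concentrations. At the GI50, growth is halved.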 Activity calls are given as the source filed them. Cut-off read from the data, not from the text of the source: active = GI50 up to about 1.1 µM and inactive = higher.

Key:
Assay in all cases: DTP human tumour cell line panel, 48 h
[1] = tested on: SNB-19
[2] = tested on: LOX IMVI
[3] = tested on: CCRF-CEM
[4] = tested on: A549
[5] = tested on: MOLT-4
[6] = tested on: K562
[7] = tested on: COLO 205
[8] = tested on: SF-539
[9] = tested on: U-251
[10] = tested on: HCT-116
[11] = tested on: RPMI-8226
[12] = tested on: SK-OV-3
[13] = tested on: ACHN
[14] = tested on: TK-10
[15] = tested on: RXF 393
[16] = tested on: UO-31
[17] = tested on: SF-295
[18] = tested on: HCC 2998
[19] = tested on: EKVX

Measured: GI50

COc1ccc(C2=NN(C(=O)c3ccccc3)C(O)(c3cc(F)c(Cl)cc3Cl)C2)cc1OC (stereo not given)
inactive: [1] 36.5 µM | [2] 97.1 µM | [3] > 100 µM | [4] 93.8 µM | [5] 8.61 µM | [6] > 100 µM | [7] > 100 µM | [8] 43.1 µM | [9] 32.4 µM | [10] 50 µM | [11] 38 µM | [12] 20.9 µM | [13] 32.5 µM | [14] 35.9 µM | [15] 18.9 µM | [16] 30.9 µM | [17] 29.5 µM | [18] 30.9 µM | [19] 32.7 µM

CC(=O)c1c(O)nnc(-c2ccc(Cl)cc2)c1-c1ccc(Cl)cc1
inactive: [1] > 100 µM | [2] 21.7 µM | [3] 45.7 µM | [4] 29.9 µM | [5] 48.5 µM | [6] 30.4 µM | [7] 29.2 µM | [8] 22.7 µM | [9] 51.9 µM | [10] 58.2 µM | [11] 23.2 µM | [12] 40.8 µM | [13] 22 µM | [14] 62.4 µM | [15] 38.9 µM | [17] 46.1 µM | [18] 61.8 µM | [19] 53.3 µM

CC(=O)N[C@@H](Cc1ccc(O)cn1)C(=O)NCc1ccc2c(c1)OCO2
inactive: [1] > 100 µM | [2] > 100 µM | [3] > 100 µM | [4] > 100 µM | [5] > 100 µM | [6] > 100 µM | [7] > 100 µM | [8] > 100 µM | [9] > 100 µM | [10] > 100 µM | [11] > 100 µM | [12] > 100 µM | [13] > 100 µM | [14] > 100 µM | [15] > 100 µM | [16] > 100 µM | [17] > 100 µM | [18] > 100 µM | [19] > 100 µM

CCOC(=O)c1nc(SC)sc1NC(=O)c1ccc(OC)cc1
inactive: [1] 75.7 µM | [2] > 100 µM | [3] > 100 µM | [4] 29.7 µM | [5] > 100 µM | [6] > 100 µM | [7] 28.8 µM | [8] 16.4 µM | [9] 23.9 µM | [10] 19.5 µM | [11] > 100 µM | [12] 63.1 µM | [13] 47.8 µM | [14] 21.1 µM | [15] 33.4 µM | [16] > 100 µM | [17] > 100 µM | [18] 43.6 µM | [19] > 100 µM

CCC(CCC(C)C1CCC2C3CC=C4CC(OC5OC(CO)C(O)C(O)C5O)CCC4(C)C3CCC12C)C(C)C (stereo not given)
inactive: [1] > 100 µM | [2] > 100 µM | [3] > 100 µM | [4] > 100 µM | [5] > 100 µM | [7] > 100 µM | [8] > 100 µM | [9] > 100 µM | [10] > 100 µM | [11] > 100 µM | [12] > 100 µM | [13] > 100 µM | [14] > 100 µM | [15] > 100 µM | [16] > 100 µM | [17] 98.9 µM | [18] > 100 µM | [19] > 100 µM

Cc1ccc(/C=C/C(=O)c2sc(-c3cccnc3)nc2C)cc1
inactive: [2] > 100 µM | [3] > 100 µM | [4] > 100 µM | [5] > 100 µM | [6] > 100 µM | [7] > 100 µM | [8] > 100 µM | [9] > 100 µM | [11] > 100 µM | [12] > 100 µM | [13] > 100 µM | [14] > 100 µM | [15] 98.9 µM | [16] > 100 µM | [17] > 100 µM | [18] > 100 µM | [19] > 100 µM

Nc1nc(-c2cccnc2)cc(-c2cc(-c3cccnc3)nc(N)n2)n1
inactive: [1] > 100 µM | [2] > 100 µM | [3] 75.2 µM | [4] > 100 µM | [5] > 100 µM | [6] > 100 µM | [7] > 100 µM | [8] > 100 µM | [9] > 100 µM | [10] > 100 µM | [11] > 100 µM | [12] > 100 µM | [13] > 100 µM | [14] > 100 µM | [15] > 100 µM | [16] > 100 µM | [17] > 100 µM | [18] > 100 µM | [19] > 100 µM

NCCNc1cccc2ccccc12
inactive: [1] > 100 µM | [2] > 100 µM | [4] > 100 µM | [7] > 100 µM | [8] > 100 µM | [9] > 100 µM | [10] > 100 µM | [11] > 100 µM | [12] > 100 µM | [13] > 100 µM | [14] > 100 µM | [15] > 100 µM | [16] > 100 µM | [17] > 100 µM | [18] > 100 µM | [19] > 100 µM
